# “Also recorded” adds a separate entry of the source.
# Columns and labels:
# Format in all cases: cell-based, mouse
# NIH/3T3 fibroblasts [1] = assay: Cell viability, ethidium homodimer-1 dead assay after the experiment; conditions: ethidium homodimer dead assay after each experiment
# Excerpt: The dead assay was taken from a Live/Dead Viability/Cytotoxicity kit from Molecular Probes. DiO and EthD show virtually no overlap in excitation/emission wavelengths, being 484/501 nm and 528/617 nm, respectively.
# NIH/3T3 fibroblasts [2] = assay: Fiber bundle subcellular imaging assay (residence time, 4.5 μm fibers); conditions: 10 seconds per frame, top 30 fibers, 5-minute experiment, control 7.5±7.4 frames
# Description: After labeling, the cells were allowed to settle and adhere to a fibronectin-coated fiber bundle that had been secured to a delta T4 dish (FIG. 1A). Fibers were placed into the delta T4 dish to maintain the temperature at 37° C. during experiments. […] After cells were allowed to adhere to the bundle's distal end, it was mounted on an inverted microscope stage, and excitation light was introduced through the proximal end of the fiber bundle. The fiber bundle is not connected directly to any part of the microscope, but remains within a centimeter of the objective. […] The resulting fluorescence emission light was then carried back through the fiber bundle to a CCD camera. […]
# (§1) Cell migration was detected using two types of fiber bundles differing in the sizes of the individual fibers. […]
# The data shown in FIG. 3C originate from an experiment in which three separate fibers were exposed to successively higher concentrations of nocodazole. […] Regions of the cell periphery can be difficult to distinguish from the background, because the fluorescence intensity gradually diminishes at the cell perimeter. […]
# Timelapse recording was performed to determine the extent of cell migration or membrane motion across the fiber surface. […] Cell movement was recorded on delta T4 dishes (data not shown), as well as on Schott and Illumina fiber bundles. […] All movement was recorded using a fluorescein filter set. […]
# NIH/3T3 fibroblasts [3] = assay: Fiber bundle whole-cell migration assay (residence time, 25 μm fibers); conditions: ten minutes per frame, average of 30 fibers, ten hours, control 4.3±2.9 frames
# Description: After labeling, the cells were allowed to settle and adhere to a fibronectin-coated fiber bundle that had been secured to a delta T4 dish (FIG. 1A). Fibers were placed into the delta T4 dish to maintain the temperature at 37° C. during experiments. […] After cells were allowed to adhere to the bundle's distal end, it was mounted on an inverted microscope stage, and excitation light was introduced through the proximal end of the fiber bundle. The fiber bundle is not connected directly to any part of the microscope, but remains within a centimeter of the objective. The excitation light was transferred through the fiber bundle to the distal end, where it excited the Vibrant DiO dye in the cell membrane (FIG. 1B). The resulting fluorescence emission light was then carried back through the fiber bundle to a CCD camera. […]
# as §1
# Migration is quantified as an increase in intensity at a particular fiber, as a fluorescently dyed cell moves across that fiber. […]
# In this example, a threshold was assigned for each selected fiber at 75% of the maximum peak intensity for that particular fiber. […] The number of frames that the intensity stays above this threshold is counted for each fiber, and then averaged for all 30 fibers, giving an average residence time for the experiment (FIG. 2D). […]
compound,measurement,setting,value
"COC(=O)Nc1nc2ccc(C(=O)c3cccs3)cc2[nH]1 [nocodazole, Nocodazole]",cell viability after nocodazole treatment,NIH/3T3 fibroblasts [1],all cells were alive; also recorded: Cells were determined to be alive
same,average residence time,NIH/3T3 fibroblasts [2]; 200 nM nocodazole,13.2±8.0 frames
same,average residence time,NIH/3T3 fibroblasts [2]; 300 nM nocodazole,19.0±9.4 frames
same,average residence time,NIH/3T3 fibroblasts [3]; 200 nM nocodazole,18.8±10.3 frames
same,average residence time,NIH/3T3 fibroblasts [3]; 300 nM nocodazole,24.6±18.6 frames
